# Assay results from patent US20130125265A1, “AGROBACTERIUM-MEDIATED METHOD FOR PRODUCING TRANSFORMED PLANT” (JAPAN TOBACCO INC., priority 2008, published 2013).
# Test system: immature maize embryos (variety: A188)
# Test: Effect of auxin in coculture medium on regeneration and GUS gene expression in whole plants regenerated without selection from Agrobacterium-inoculated immature maize embryos
# Type: cell-based
# Settings: for Number of immature embryos found to regenerate into whole plants on LSZ medium / Number of immature embryos with at least one leaf piece showing GUS gene expression / Number of immature embryos whose leaf pieces were all GUS-negative: auxin 6.8 μM in coculture medium, 24 immature embryos per auxin; for Number of immature embryos found to regenerate into whole plants on LSZ medium: Agrobacterium LBA4404 (pSB124); for Percentage of regenerated plants showing expression of the transgene (in words) / Efficiency of regeneration into whole plants (in words): comparison of auxins in coculture medium
# Protocol: Maize (variety: A188) immature embryos (1.0 to 1.5 mm in size) at 7 to 14 days after pollination were aseptically collected and washed once with LS-inf liquid medium, followed by pretreatment (thermal treatment at 46° C. for 3 minutes) to increase gene transfer efficiency for transformation enhancement. In LS-inf liquid medium containing 100 μM acetosyringone, Agrobacterium strain LBA4404 (pSB124) (Komari et al., 1996) was suspended to prepare an inoculum.
# The thermally-treated immature embryos were mixed with the inoculum, vortexed for 30 seconds, and then allowed to stand for 5 minutes at room temperature. The Agrobacterium-inoculated immature embryos (24 in total) were placed, with their scutella facing up, onto a coculture medium containing dicamba (3,6-dichloro-o-anisic acid) or picloram (4-amino-3,5,6-trichloropicolinic acid) at a concentration of 6.8 μM in LS-AS medium (Ishida et al. 1996; solidified with 8 g/l agarose) which had been prepared to exclude 2,4-D (2,4-dichlorophenoxyacetic acid) and contain 5 μM AgNO3 and 5 μM CuSO4.
# On the other hand, LS-AS medium containing 5 μM AgNO3 and 5 μM CuSO4 was supplemented with 1.5 mg/l (6.8 μM) 2,4-D as an auxin member and also used for testing, 24 immature embryos were placed onto this medium.
# The immature embryos cultured in the dark at 25° C. for 7 days were placed onto LSZ medium (Ishida et ai., 1996) containing 10 μM CuSO4, and then cultured in the light at 25° C. for about 2 weeks. Leaves of the regenerated whole plants were partially excised and immersed in 0.1 M phosphate buffer (pH 6.8) containing 0.1% Triton X-100 and then allowed to stand at 37° C. for 1 hour. The phosphate buffer was removed and replaced by another phosphate buffer containing 1.0 mM 5-bromo-4-chloro-3-indolyl-β-D-glucuronic acid (X-gluc) and 20% methanol. After treatment at 37° C. for 24 hours, GUS gene expression was analyzed.
Compound,Number of immature embryos found to regenerate into whole plants on LSZ medium (no selection),Number of immature embryos with at least one leaf piece showing GUS gene expression (no selection),"Number of immature embryos that did not regenerate into plants on LSZ medium (auxin 1.5 mg/l (6.8 μM) in coculture medium, 24 immature embryos, no selection)",Percentage of regenerated plants showing expression of the transgene (in words),Number of immature embryos whose leaf pieces were all GUS-negative (no selection),Efficiency of regeneration into whole plants (in words)
"O=C(O)COc1ccc(Cl)cc1Cl [2,4-D, 2,4-dichlorophenoxyacetic acid]",21,4,3,slightly lower,,
"COc1c(Cl)ccc(Cl)c1C(=O)O [dicamba, 3,6-dichloro-o-anisic acid]",24,11,,increased percentage,13,higher efficiency
"Nc1c(Cl)c(Cl)nc(C(=O)O)c1Cl [picloram, 4-amino-3,5,6-trichloropicolinic acid]",All of the immature embryos,9,,increased percentage,15,higher efficiency
